Entries after “also recorded” stand apart in the source; their conditions may differ.
Assays:
[1] = ref 46 (ref 23, 46, 60, 61); cited from earlier work
Excerpt: To this end, we prepared UptA:C55-P mixtures and then equilibrated aliquots with bacitracin and vancomycin. […] In line with the specificity of bacitracin for C55-PP rather than C55-P, this antibiotic modestly ...

UptA = UptA (Bacillus subtilis, UniProt O31823); assay: Native MS of antibiotic binding to UptA; conditions: 2.5 µM UptA, 10 µM C55-P, antibiotic up to 100 µM (polymyxins 100 µM), 0.05% LDAO, 200 mM ammonium acetate, 75 V
UptA, sequence (O31823 whole entry): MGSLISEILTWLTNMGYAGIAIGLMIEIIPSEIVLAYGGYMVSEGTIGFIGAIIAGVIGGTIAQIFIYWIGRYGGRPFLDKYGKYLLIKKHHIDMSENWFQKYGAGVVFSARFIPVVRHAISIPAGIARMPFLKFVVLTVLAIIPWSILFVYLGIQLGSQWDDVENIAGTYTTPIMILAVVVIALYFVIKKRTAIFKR
Description: We next investigate how UptA and its complex with C55-P interact with a range of cell-wall targeting antibiotics including the lipopeptides daptomycin and amphomycin. […] We investigated whether daptomycin affects C55-P binding to UptA by recording spectra for solutions containing 2.5 µM UptA, 10 µM C55-P, and different concentrations of daptomycin.
(§1) Amphomycin and derivatives are known to kill bacteria by forming complexes with free C55-P ([46]), however, whether or not this involves a direct interaction with a protein cellular target is not known. We therefore investigated how amphomycin affects the UptA:C55-P complex. We recorded spectra for solutions containing 2.5 µM UptA, 10 µM C55-P and then equilibrated aliquots with increasing concentrations of amphomycin.
The amphiphilic nature of daptomycin and amphomycin raises the possibility that these lipopeptide antibiotics may promiscuously bind to UptA in a nonspecific manner. We probe this possibility by recording spectra for UptA:C55-P solutions in the presence of 100 µM polymyxin B and 100 µM polymyxin E. These polymyxins are membrane-disrupting lipopeptides that target the outer membrane lipopolysaccharides in Gram-negative bacteria ([47]) but without a known affinity for C55-P or UptA.
To this end, we prepared UptA:C55-P mixtures and then equilibrated aliquots with bacitracin and vancomycin.
(§2) Detailed experimental procedures are provided in SI Appendix. Briefly, UptA (wild type and mutants) was expressed in E. coli C43(DE3) cells (Lucigen) with GFP fusion on the C-terminus and solubilized from the membrane fraction by n-dodecyl-β-D-maltopyranoside (DDM). After purification by affinity chromatography, the GFP was cleaved by TEV protease and removed, and UptA was further purified by size-exclusion chromatography in a buffer containing 20 mM Tris-HCl (pH 8.0), 200 mM NaCl, 0.02% DDM. Before measurements, proteins were buffer-exchanged into 0.05% LDAO, 200 mM ammonium acetate at the desired pH using a centrifugal buffer exchange device (Micro Bio-Spin 6, Bio-Rad). Stock solutions of lipids were prepared from chloroform/methanol solution by evaporating aliquots of known volume in a SpeedVac. After drying, the lipid films were weighed and resuspended to a final concentration of 0.5 mM in 200 mM ammonium acetate and 0.05% LDAO by vertexing. Stock solutions of 0.5 mM amphomycin, aspartocin D, daptomycin, polymyxin B, polymyxin E, and bacitracin were made in the same buffer. All experiments were repeated three times from newly prepared stock solutions. Native mass spectrometry was performed on a Q-Exactive hybrid quadrupole-Orbitrap mass spectrometer (Thermo Fisher Scientific, Bremen, Germany), and lipid identification was performed on an Orbitrap Eclipse Tribrid mass spectrometer (Thermo). […]

[2] = system: B. subtilis strains bearing R112 and R118 mutations on UptA; conditions: cited from earlier work
Excerpt: Conserved arginine residues in the putative membrane reentrant loops of E. coli DedA proteins YqjA (R130) and YghB (R136) are important for the cellular role of these proteins ([36]). […] How these residues impact substrate interactions, however, is not known. […] Despite the combined cellular pool of C55-PP and C55-P being limited to ~1.5 × 10^5 molecules per cell ([56]), they mediate the transport of glycan-bearing components of the cell wall peptidoglycan, teichoic acid, and capsular polysaccharid ...

UptA:C55-P complex = assay: Native MS of UptA:C55-P complex in the presence of antibiotics; format: binding, Bacillus subtilis; conditions: 2.5 µM UptA, 10 µM C55-P; for effect of antibiotic on UptA:C55-P complex (in words): 0 to 100 µM antibiotic, 75 V, mean of three independent replicates
Description: as §1
(A) Mass spectra (6+ charge state) for solutions containing 2.5 µM UptA and 10 µM C55-P incubated with 0 to 100 µM amphomycin. (B) Relative intensity of C55-P bound to UptA in the presence of amphomycin and daptomycin. The bar represents the mean of three independent replicates shown as data points and error bars are SD. […] (C) Fraction of C55-P bound to UptA in the presence of cell wall targeting antibiotics. Each sample contains 2.5 µM UptA, 10 µM C55-P and 100 µM of indicated antibiotic, and spectra were acquired using the same instrument settings and collisional activation of 75 V. The bar represents the mean of three independent replicates shown as data points, and the error bar represents SD. […]
as §2

Substance: amphomycin
- complex formation with free C55-P (in words) [1]: known propensity to form complexes with free C55-P molecules
- binding of antibiotic to UptA (in words) (UptA): peaks consistent with amphomycin binding to UptA; also recorded: bind to UptA with higher affinity than other cell-wall targeting antimicrobial peptides such as bacitracin and vancomycin
- susceptibility of B. subtilis cells with UptA R112 and R118 mutations (in words) [2]: more susceptible to inhibition by amphomycin
- effect of antibiotic on UptA:C55-P complex (in words) (UptA:C55-P complex): peak intensities of the UptA:C55-P complex reduce with respect to an increase in the concentration of amphomycin; also recorded: induce dissociation of UptA:C55-P complexes; also recorded: bind directly to UptA and induce dissociation of the UptA:C55-P complex; also recorded: can directly inhibit UptA function by out-competing the substrate for the protein binding
- effect of antibiotic on UptA:C55-P complex (in words) (UptA:C55-P complex; listed as Amphomycin): destabilizes the UptA:C55-P complex and sequesters C55-P
- UptA:C55-P complex remaining at 10-fold molar excess of antibiotic (in words) (UptA:C55-P complex; 10-fold molar excess of amphomycin): little-to-no UptA:C55-P complexes remained
